Experimental findings from ChEMBL document CHEMBL4814027, “Synthesis and biological evaluation of naphthoquinone phenacylimidazolium derivatives” (Bioorg Med Chem Lett, 2021) are described below.

Data set [1] relates to MCF7. Description: Induction of cell cycle arrest in human MCF7 cells assessed as accumulation at S phase at 0.2 uM after 48 hrs by flow cytometric analysis (reference value: 24.4 %). Format: functional. In general terms: A flow cytometer gives signals particle by particle.
For data set [2], the system named is MCF7. Description: Induction of cell cycle arrest in human MCF7 cells assessed as accumulation at S phase at 0.02 uM after 48 hrs by flow cytometric analysis (reference value: 24.4 %). In kind it is functional.
The subject of data set [3] is MCF7. Put plainly: Induction of cell cycle arrest in human MCF7 cells assessed as accumulation at G2/M phase at 0.1 uM after 48 hrs by flow cytometric analysis (reference value: 8.7 %). In kind it is functional.
The subject of data set [4] is MCF7. Description: Induction of apoptosis in human MCF7 cells assessed as viable cells at 0.2 uM after 48 hrs by Annexin V/PI staining based flow cytometric analysis (reference value: 93.7 %). Format: functional. The following applies: read-out: Activity.
Data set [5] has as its system MCF7. Description: Induction of apoptosis in human MCF7 cells assessed as necrotic cells at 0.2 uM after 48 hrs by Annexin V/PI staining based flow cytometric analysis (reference value: 0.017 %). Format: functional.
Data set [6] relates to MCF7. Put plainly: Induction of apoptosis in human MCF7 cells assessed as inhibition of survivin protein expression at 0.02 to 0.2 uM by Western blotting analysis. Format: functional, cell-based. The note with it: dose 0.02-0.2 µM. In general terms: A western blot detects proteins with antibodies after separation by electrophoresis.
For data set [7], the system named is MCF7. Description: Induction of cell cycle arrest in human MCF7 cells assessed as accumulation at G0/G1 phase at 0.1 uM after 48 hrs by flow cytometric analysis (reference value: 66.6 %). Format: functional.
Data set [8] relates to MCF7. Put plainly: Induction of cell cycle arrest in human MCF7 cells assessed as accumulation at S phase at 0.1 uM after 48 hrs by flow cytometric analysis (reference value: 24.4 %). In kind it is functional.
In data set [9] the test system is MCF7. Put plainly: Induction of cell cycle arrest in human MCF7 cells assessed as accumulation at G0/G1 phase at 0.02 uM after 48 hrs by flow cytometric analysis (reference value: 66.6 %). In kind it is functional.
Data set [10] deals with MCF7. Description: Induction of apoptosis in human MCF7 cells assessed as late apoptotic cells at 0.02 uM after 48 hrs by Annexin V/PI staining based flow cytometric analysis (reference value: 1.23 %). Format: functional.
Data set [11] relates to MCF7. Description: Induction of cell cycle arrest in human MCF7 cells assessed as accumulation at G2/M phase at 0.02 uM after 48 hrs by flow cytometric analysis (reference value: 8.7 %). Format: functional.
For data set [12], the system named is MCF7. Description: Induction of apoptosis in human MCF7 cells assessed as viable cells at 0.02 uM after 48 hrs by Annexin V/PI staining based flow cytometric analysis (reference value: 93.7 %). The note with it: read-out: Activity. Format: functional.
Data set [13] relates to MCF7. Description: Induction of cell cycle arrest in human MCF7 cells assessed as accumulation at G0/G1 phase at 0.2 uM after 48 hrs by flow cytometric analysis (reference value: 66.6 %). In kind it is functional.
For a further data set, the system named is L929. Description: Cytotoxicity against mouse L929 cells by MTT assay. (In general: Tetrazolium assays rely on reduction of a dye to a coloured formazan, in cell work by metabolically active cells.)
Data set [14] is described as follows: Selectivity ratio of IC50 for mouse L929 cells to IC50 for human A549 cells. The note with it: L929 cells versus A549 cells, read-out: Ratio IC50. Format: toxicity.
The subject of data set [15] is MCF7. Put plainly: Induction of apoptosis in human MCF7 cells assessed as early apoptotic cells at 0.02 uM after 48 hrs by Annexin V/PI staining based flow cytometric analysis (reference value: 5.05 %). Format: functional.
The next data set deals with HeLa. Put plainly: Cytotoxicity against human HeLa cells by MTT assay. In kind it is functional, cell-based.
Data set [16] is described as follows: Selectivity ratio of IC50 for mouse L929 cells to IC50 for human MCF7 cells. Format: toxicity. The following applies: L929 cells versus MCF7 cells, read-out: Ratio IC50.
Data set [17] has as its system MCF7. Description: Induction of cell cycle arrest in human MCF7 cells assessed as accumulation at G2/M phase at 0.2 uM after 48 hrs by flow cytometric analysis (reference value: 8.7 %). In kind it is functional.
Data set [18] is described as follows: Selectivity ratio of IC50 for mouse L929 cells to IC50 for human HeLa cells. In kind it is toxicity. The following applies: L929 cells versus HeLa cells, read-out: Ratio IC50.
In data set [19] the test system is MCF7. Put plainly: Induction of apoptosis in human MCF7 cells assessed as increase in cleaved caspase 3 protein expression at 0.02 uM by Western blotting analysis. Format: functional, cell-based.
For data set [20], the system named is MCF7. Put plainly: Induction of apoptosis in human MCF7 cells assessed as late apoptotic cells at 0.1 uM after 48 hrs by Annexin V/PI staining based flow cytometric analysis (reference value: 1.23 %). Format: functional.
Data set [21] relates to MCF7. Description: Induction of apoptosis in human MCF7 cells assessed as necrotic cells at 0.02 uM after 48 hrs by Annexin V/PI staining based flow cytometric analysis (reference value: 0.017 %). Format: functional.
For data set [22], the system named is MCF7. Description: Induction of apoptosis in human MCF7 cells assessed as early apoptotic cells at 0.1 uM after 48 hrs by Annexin V/PI staining based flow cytometric analysis (reference value: 5.05 %). Format: functional.
In data set [23] the test system is MCF7. Put plainly: Induction of apoptosis in human MCF7 cells assessed as late apoptotic cells at 0.2 uM after 48 hrs by Annexin V/PI staining based flow cytometric analysis (reference value: 1.23 %). Format: functional.
Data set [24] has as its system MCF7. Description: Cytotoxicity against human MCF7 cells by MTT assay. In kind it is functional, cell-based.
For data set [25], the system named is MCF7. Description: Induction of apoptosis in human MCF7 cells assessed as necrotic cells at 0.1 uM after 48 hrs by Annexin V/PI staining based flow cytometric analysis (reference value: 0.017 %). In kind it is functional.
The test system of another data set is A549. Description: Cytotoxicity against human A549 cells by MTT assay.
For data set [26], the system named is MCF7. Put plainly: Induction of apoptosis in human MCF7 cells assessed as viable cells at 0.1 uM after 48 hrs by Annexin V/PI staining based flow cytometric analysis (reference value: 93.7 %). The note with it: read-out: Activity. Format: functional.
The subject of data set [27] is MCF7. Put plainly: Induction of apoptosis in human MCF7 cells assessed as early apoptotic cells at 0.2 uM after 48 hrs by Annexin V/PI staining based flow cytometric analysis (reference value: 5.05 %). In kind it is functional.

Molecules are shown by their SMILES. The source made the active and inactive calls. The rule behind the calls is not given here.

`CC(C)Cn1c[n+](CC(=O)c2cccs2)c2c1C(=O)c1ccccc1C2=O.[Br-]`: the Activity with MCF7 [1] was found to be 43.7%; in the data set on MCF7 [2], 30.1%; in the data set with MCF7 [3] it was 11.4%; with MCF7 [5], 0.98%; with MCF7 [7] it was 52.5%; with MCF7 [8], 35.6%. In addition, the Activity is given as 56.6% in the data set on MCF7 [9]; 6.12% in the data set with MCF7 [10]; 13.1% in the data set with MCF7 [11]; 46.2% with MCF7 [13]; 46% in the data set with MCF7 [15]; 10% in the data set with MCF7 [17]. In addition, the Activity in the data set with MCF7 [20] was found to be 4.44%; in the data set with MCF7 [21], 0.33%; in the data set with MCF7 [22] it was 69.2%; with MCF7 [23] it was 7.77%; in the data set on MCF7 [25] it was 0.42%; in the data set with MCF7 [27], 83.4%. The viability at 0.2 µM in the data set with MCF7 [4] amounted to 7.84%. Besides, the result in the data set on MCF7 [6] and with MCF7 [19] was Active. Further, in the data set with MCF7 [12], the viability at 0.02 µM came to 47.6%. Also, the IC50 – broadly, the concentration that gives 50% inhibition – was 12.8 µM in the data set on L929, 0.6 µM with HeLa, 0.05 µM with MCF7 [24] and 0.21 µM with A549. The selectivity ratio in [14] was 61; in data set [16] it was 256; in data set [18], 21.3. In the data set with MCF7 [26], the viability at 0.1 µM is 26%.

`CC(C)Cn1c[n+](CC(=O)c2ccccc2)c2c1C(=O)c1ccccc1C2=O`: the half-inhibitory concentration (IC50) came to 2.7 µM in the data set on L929, 0.9 µM with HeLa, 0.52 µM with MCF7 [24] and 0.32 µM with A549. For the same compound, the selectivity ratio turned out to be 8.44 in data set [14], 5.19 in [16] and 3 in data set [18].

`CN(C)C(=O)C[n+]1cn(C)c2c1C(=O)c1ccccc1C2=O`: the IC50 was 4.3 µM in the data set on L929, 0.2 µM in the data set with HeLa, 7.6 µM in the data set on MCF7 [24] and 0.1 µM with A549. In addition, the figures for the selectivity ratio in data set [14], in data set [16] and in data set [18] were 43, 0.57 and 21.5, respectively.

`O=C(C[n+]1cn(-c2ccccc2)c2c1C(=O)c1ccccc1C2=O)c1ccc([N+](=O)[O-])cc1`: the IC50 with L929 came out at 31 µM; in the data set on HeLa, 20.3 µM; with MCF7 [24], 59.1 µM; in the data set on A549, 40.4 µM. Further, the selectivity ratio in [14] turned out to be 0.77; in [16], 0.52; in data set [18] it was 1.53.

In the case of `Cn1c[n+](CC(=O)c2ccc(C(F)(F)F)cc2)c2c1C(=O)c1ccccc1C2=O`, the IC50 in the data set with L929 was found to be 19.3 µM; in the data set with HeLa, 9.2 µM; in the data set on MCF7 [24], 7.4 µM; in the data set on A549, 1.3 µM. Also, the values for the selectivity ratio in [14], in [16] and in data set [18] were 14.9, 2.61 and 2.1, respectively.

Turning to `C#CCn1c[n+](CC(=O)c2ccc([N+](=O)[O-])cc2)c2c1C(=O)c1ccccc1C2=O`, the IC50 with L929 was determined as 19 µM; in the data set on HeLa it was 17.2 µM; in the data set on MCF7 [24], 40.9 µM; in the data set on A549, 15.1 µM. The selectivity ratio in data set [14] came to 1.26; in data set [16] it was 0.46; in data set [18] it was 1.1.

Consider `CC(C)Cn1c[n+](CC(=O)c2ccc3ccccc3c2)c2c1C(=O)c1ccccc1C2=O`, for which the IC50 worked out at 17.7 µM with L929, 4.3 µM with HeLa, 2.7 µM in the data set with MCF7 [24] and 1.3 µM with A549. Besides, the figures for the selectivity ratio in data set [14], in data set [16] and in [18] were 13.6, 6.56 and 4.12, respectively.

With `Cn1c[n+](CC(=O)c2ccc(Br)cc2)c2c1C(=O)c1ccccc1C2=O`, the IC50 amounted to 20.7 µM in the data set on L929, 8.3 µM in the data set with HeLa, 7.3 µM with MCF7 [24] and 0.95 µM in the data set with A549. Further, the selectivity ratio in [14] stood at 21.8; in data set [16], 2.84; in data set [18], 2.49.

`Cn1c[n+](CC(=O)c2ccccc2)c2c1C(=O)c1ccccc1C2=O`: the IC50 in the data set with L929 is 29.9 µM; in the data set with HeLa, 1.5 µM; in the data set with MCF7 [24] it was 0.37 µM; with A549 it was 0.42 µM. Also, the selectivity ratio in data set [14] worked out at 71.2; in data set [16] it was 80.8; in [18], 19.9.

As for `Cn1c[n+](CC(=O)c2ccc(Cl)cc2)c2c1C(=O)c1ccccc1C2=O`, the IC50 was 14.2 µM in the data set on L929, 6.6 µM in the data set with HeLa, 4.9 µM in the data set on MCF7 [24] and 1 µM in the data set with A549. In addition, the selectivity ratio in [14] came out at 14.2; in data set [16], 2.9; in [18], 2.15.

As to `CCC(C)n1c[n+](CC(=O)c2ccc([N+](=O)[O-])cc2)c2c1C(=O)c1ccccc1C2=O` (centres undefined), the IC50 is 27.1 µM in the data set with L929, 8.4 µM with HeLa, 8.9 µM with MCF7 [24] and 1.8 µM in the data set on A549. In addition, the selectivity ratio in data set [14] turned out to be 15.1; in data set [16], 3.04; in data set [18], 3.23.

Regarding `CC(C)Cn1c[n+](CC(=O)c2ccccc2[N+](=O)[O-])c2c1C(=O)c1ccccc1C2=O`, the IC50 in the data set on L929 was found to be 133 µM; in the data set on HeLa, 73.6 µM; in the data set on MCF7 [24] it was 55.4 µM; in the data set on A549, 35.2 µM. For the same compound, the figures for the selectivity ratio in [14], in [16] and in [18] were 3.78, 2.4 and 1.81, respectively.

In the case of `CC(C)Cn1c[n+](CC(=O)C(C)(C)C)c2c1C(=O)c1ccccc1C2=O`, the IC50 with L929 turned out to be 10.4 µM; in the data set with HeLa, 9.4 µM; in the data set with MCF7 [24] it was 10.4 µM; in the data set with A549, 3.3 µM. Besides, the selectivity ratio was 3.15 in data set [14], 1 in [16] and 1.11 in data set [18].
